From patent US20070078096A1, “Buffered drug formulations for transdermal electrotransport delivery” (priority 1997, published 2007)
≈ marks a conversion by molar mass, not a printed value. Read-outs that look alike come from different tables or passages of the source. Residues, ends and D or L forms follow the SMILES beside them.

What was measured:
[1] = Donor reservoir gel pH during electrotransport of DECAD (Example 3); type: in vivo, hairless guinea pigs
Protocol: The effect of the zwitterionic buffer Gly-His at pH 7.5 (pI) on the transdermal delivery of a synthetic radiolabeled decapeptide (DECAD) in the hairless guinea pig was evaluated. […] At pH 7.5 the net charge of DECAD is about +1.6.
The electrodes were connected to a DC power source which supplied a constant level of electric current of 0.100 mA/cm2. The anodic reservoir comprised a skin-contacting gel containing the aqueous solution of the buffering agent and DECAD at the indicated concentrations and 3% hydroxyethyl cellulose (HEC) as well as 10% cholestyramine, a high molecular weight resin in chloride salt form which contributes chloride ions into the donor solution without introducing mobile cations which compete with the DECAD for delivery into the animal. The chloride ions from the cholestyramine resin are provided to react with any silver ions which are generated by electrochemical oxidation of the silver foil anode, thereby removing silver cations (ie, as potentially competing with the DECAD cations) from the donor solution. The cathodic reservoir contained a 0.15 M aqueous solution of sodium chloride in an HEC gel.
Experiments were performed in vivo in hairless guinea pigs. Three animals were used for each condition studied. The electrotransport systems were applied to and removed from the flank of the animals. The two reservoirs were generally spaced about 5 cm apart. The application site was wiped with water prior to system application. […] Donor reservoir gel pH was measured prior to application and after removal of the systems using a HORIBA compact pH meter (Cardy).

[2] = Conductivity of dipeptides at their pI; type: physicochemical
Source text: (§1) Table 1 lists conductivities and solubilities of selected dipeptides useful in the present invention, at their pI.

[3] = In vivo iontophoresis, pH control of anodic and cathodic buffer gels (Example 2); design: species or system hairless guinea pigs; Ionic strength (approx.): unit not given here; details: for Anodic pH after 5 h electrotransport / Cathodic pH after 5 h electrotransport: 0.1 mA/cm^2
Protocol: In vivo iontophoresis experiments were performed using custom built electrotransport systems. […] This formulation was separated from the anode electrode by a Sybron ion exchange membrane. […] The cathode-compartment comprised a skin-contacting gel containing the aqueous solution of the buffering agent at the indicated concentration and 3% HEC. This formulation was separated from the cathode electrode by a Nafion ion exchange membrane. […] The electrodes were connected to a DC power source which supplied a constant level of electric current of 0.1 mA/cm^2. Experiments were performed in vivo in hairless guinea pigs. Three animals were used for each condition studied. The electrotransport systems were applied to and removed from the flank of the animals. The two reservoirs were generally spaced about 5 cm apart. The application site was wiped with water prior to system application. pH of the gels was measured prior to application and after removal of the systems using a HORIBA compact pH […]).

[4] = pH stability of formulations with TMAB or SMS during electrotransport (Example 4); type: in vivo, hairless guinea pigs
Source text: The effect of the zwitterionic buffer Gly-His and His-Glu on pH stability of formulations containing small molecular weight drug-like compounds during electrotransport to hairless guinea pigs was studied. Trimethylammonium bromide (TMAB) was used as the cationic model drug and sodium methanesulfate (SMS) was used as the model anionic drug.
The electrodes were connected to a DC power source which supplied a constant level of electric current of 0.100 mA/cm^2. The anodic electrode assembly comprised a skin-contacting gel containing the aqueous solution of His-Glu 66 mM or Gly-His 45 mM and TMAB at 50 mM and 3% HEC. This formulation was separated from the silver anode by a Sybron ion exchange membrane. A gel containing 0.15 M sodium chloride (which acted as a chloride source) was placed between the silver anode and the ion exchange membrane. The cathodic electrode assembly comprised a skin-contacting gel containing the aqueous solution of His-Glu 66 mM or Gly-His 45 mM and SMS 50 mM and 3% HEC. The cathodic gel reservoir was separated from the silver chloride cathode by a Nafion ion exchange membrane. A gel containing 0.1 5M sodium chloride was placed between the cathode and the ion exchange membrane. The ionic strength of the skin-contacting gels was 60 mM.
Experiments were performed in vivo in hairless guinea pigs. Two animals were used for each condition studied. The electrotransport systems were applied to and removed from the backs of the animals. The two reservoirs were generally spaced about 5 cm apart. The application site was wiped with 70% isopropyl alcohol wipes prior to system application. Donor reservoir gel pH was measured prior to application and after removal of the systems using a HORIBA compact pH meter (Cardy).

[5] = pKa, pI and charge distribution of buffers
Source text: At the pI, three species coexist.
In an electric field these negative species move in the opposite direction of their positive associated counterions.
Choice of the dipeptide buffer will be on a case-by-case basis depending on the drug compound and the desired level of pH control and conductivity of the formulation.

[6] = Solubility of dipeptides at their pI; type: physicochemical
Source text: as §1

[7] = hGH stability in HEC gel at 32° C. (RP, SEC, IE HPLC); type: physicochemical; details: for hGH remaining intact: HEC gel, 32° C., after 6 hours
Protocol: A sufficient quantity of His-Gly from BACHEM Bioscience was added to distilled water to make a 12.5 mM buffer solution having a pH of 6.75. A human growth hormone (hGH) formulation obtained from BresaGen contained growth hormone, mannitol and glycine in the following proportions: 1:5:1 (w/w). The original hGH formulation was subjected to purification (diafiltration against 12.5 mM His-Gly buffer to remove the mannitol and glycine) and the hGH concentration was adjusted to about 20 mg/ml via ultrafiltration.
Aliquots of 250 μl of the resulting hGH stock solution were placed into Eppendorf tubes, each containing 5 mg (2%) of hydroxyethyl cellulose (HEC) as a gelling agent and the samples were carefully mixed. After gelation, the samples were tested for stability at body temperature. The samples were warmed to 32° C. (ie, skin temperature) and assayed at 0, 1, 2, 3, 4, 5, and 6 hours to determine the percent of hGH remaining intact in the gel. hGH from the gels was extracted by dissolving the gel in 25 ml of His-Gly buffer. All hGH samples were analyzed by reverse-phase high performance liquid chromatography (RP), size-exclusion high performance liquid chromatography (SEC), and ion-exchange high performance liquid chromatography (IE) to determine percentage of intact hGH remaining (%LS in FIG. 9). The percent of hGH remaining was calculated by measuring the concentration of the hGH (as determined using one of three high performance liquid chromatography methods) and dividing that by the initial hGH concentration.
As a comparison, hGH stability studies were run under identical conditions to those described above, except histidine buffer was substituted for His-Gly.

[8] = Gly-His 10 mM, DECAD 5 mM, wearing time 5 h
[9] = Gly-His 30 mM, DECAD 5 mM, wearing time 5 h
[10] = Gly-His 100 mM, DECAD 0.5 mM, wearing time 5 h
[11] = Gly-His 100 mM, DECAD 5 mM, wearing time 5 h
[12] = Gly-His 100 mM, DECAD 5 mM, wearing time 24 h
[13] = Gly-His 250 mM, DECAD 5 mM, wearing time 5 h
[14] = His-Gly buffered hGH gel stored at 32° C.

Question: For `NCC(=O)N[C@@H](Cc1cnc[nH]1)C(=O)O` [Gly-His] (H-Gly-His-OH), which “Final pH” value [1, 8] is on record?
Answer: 7.0

Question: What about the “Initial pH” value [1, 8] of the same compound?
Answer: 6.9

Question: What about the “Final pH” value [1, 9] of the same compound?
Answer: 7.0

Question: What about the “Initial pH” value [1, 9] of the same compound?
Answer: 7.1

Question: What about the “Final pH” value [1, 10] of the same compound?
Answer: 7.2

Question: What about the “Initial pH” value [1, 10] of the same compound?
Answer: 7.3

Question: And the “Final pH” value [1, 11]?
Answer: 7.3

Question: What about the “Initial pH” value [1, 11] of the same compound?
Answer: 7.4

Question: What about the “Final pH” value [1, 12] of the same compound?
Answer: 7.3

Question: What about the “Initial pH” value [1, 12] of the same compound?
Answer: 7.4

Question: And the “Final pH” value [1, 13]?
Answer: 7.3

Question: What about the “Initial pH” value [1, 13] of the same compound?
Answer: 7.4

Question: What about the “pH control with DECAD” value ([1]; all experimental conditions tested (Table 6)) of the same compound?
Answer: capable of assuring pH control

Question: What about the “Conductivity at 10^−2 Molar” value [2] of the same compound?
Answer: 52 μS/cm

Question: What about the “pH after 24 h electrotransport” value ([3]; Anode) of the same compound?
Answer: 7.2

Question: What about the “pH after 24 h electrotransport” value ([3]; Cathode, listed as Gly-His 100 mM) of the same compound?
Answer: 7.3

Question: What about the “pH after 24 h electrotransport” value ([3]; Cathode, listed as Gly-His 250 mM) of the same compound?
Answer: 7.0

Question: What about the “Ionic strength (approx.)” value ([3]; Table 3, anodic buffer gel, listed as Gly-His 30 mM) of the same compound?
Answer: ~0.007

Question: And the “Ionic strength (approx.)” value ([3]; Table 3, anodic buffer gel, listed as Gly-His 100 mM)?
Answer: ~0.02

Question: And the “Ionic strength (approx.)” value ([3]; Table 3, anodic buffer gel, listed as Gly-His 250 mM)?
Answer: ~0.06

Question: And the “Ionic strength (approx.)” value ([3]; Table 4, cathodic buffer gel, listed as Gly-His 100 mM)?
Answer: ~0.02

Question: What about the “Ionic strength (approx.)” value ([3]; Table 4, cathodic buffer gel, listed as Gly-His 250 mM) of the same compound?
Answer: ~0.06

Question: And the “Initial pH” value ([3]; Table 5, Anode, listed as Gly-His 100 mM)?
Answer: 7.3

Question: And the “Initial pH” value ([3]; Table 5, Anode, listed as Gly-His 250 mM)?
Answer: 7.2

Question: And the “Initial pH” value ([3]; Table 5, Cathode, listed as Gly-His 100 mM)?
Answer: 7.6

Question: And the “Initial pH” value ([3]; Table 5, Cathode, listed as Gly-His 250 mM)?
Answer: 6.9

Question: What about the “Anodic pH after 5 h electrotransport” value ([3]; anodic gel, listed as Gly-His 30 mM) of the same compound?
Answer: 7.0

Question: What about the “Anodic pH after 5 h electrotransport” value ([3]; anodic gel, listed as Gly-His 100 mM) of the same compound?
Answer: 7.3

Question: What about the “Anodic pH after 5 h electrotransport” value ([3]; anodic gel, listed as Gly-His 250 mM) of the same compound?
Answer: 7.3

Question: What about the “Initial pH” value ([3]; anodic gel, prior to application, listed as Gly-His 30 mM) of the same compound?
Answer: 7.1

Question: What about the “Initial pH” value ([3]; anodic gel, prior to application, listed as Gly-His 100 mM) of the same compound?
Answer: 7.4

Question: What about the “Initial pH” value ([3]; anodic gel, prior to application, listed as Gly-His 250 mM) of the same compound?
Answer: 7.4

Question: And the “Cathodic pH after 5 h electrotransport” value ([3]; cathodic gel, listed as Gly-His 100 mM)?
Answer: 7.3

Question: And the “Cathodic pH after 5 h electrotransport” value ([3]; cathodic gel, listed as Gly-His 250 mM)?
Answer: 7.4

Question: And the “Initial pH” value ([3]; cathodic gel, prior to application, listed as Gly-His 100 mM)?
Answer: 7.6

Question: And the “Initial pH” value ([3]; cathodic gel, prior to application, listed as Gly-His 250 mM)?
Answer: 7.5

Question: And the “pH control of electrotransport formulations” value ([3]; electrotransport experiments in animals, at their pI, for several hours)?
Answer: capable of assuring pH control

Question: And the “pH control of a cathodic electrotransport formulation” value ([3]; for at least 5 hours, dipeptides at their pI)?
Answer: capable of assuring pH control

Question: What about the “pH control of an anodic electrotransport formulation” value ([3]; for several hours, dipeptides at their pI) of the same compound?
Answer: capable of assuring pH control

Question: What about the “pH control of anodic and cathodic electrotransport formulations” value ([3]; for up to 24 hours, at their pI) of the same compound?
Answer: capable of assuring pH control

Question: And the “Final pH” value ([4]; Anode, drug TMAB 50 mM)?
Answer: 6.9

Question: And the “Initial pH” value ([4]; Anode, drug TMAB 50 mM)?
Answer: 7.4

Question: And the “Final pH” value ([4]; Cathode, drug SMS 50 mM)?
Answer: 7.9

Question: And the “Initial pH” value ([4]; Cathode, drug SMS 50 mM)?
Answer: 7.5

Question: What about the “pH control with TMAB or SMS” value ([4]; all experimental conditions tested (Table 7)) of the same compound?
Answer: good pH control

Question: What about the pI [5] of the same compound?
Answer: 7.55

Question: And the “pka A” value [5]?
Answer: 2.42

Question: And the pI ([5]; Table 1)?
Answer: 7.55

Question: And the pI ([5]; Table 2)?
Answer: 7.55

Question: And the “species presenting a net charge (salt form) at the pI” value ([5]; at pI)?
Answer: 30%

Question: And the “neutral species at the pI” value ([5]; at pI, net charge of zero)?
Answer: 70%

Question: What about the “% salt” value ([5]; fraction of dipeptide carrying a net charge in aqueous solution at pH equal to pI) of the same compound?
Answer: 22%

Question: And the “net charge at pH 7.5” value ([5]; pH 7.5)?
Answer: essentially zero

Question: And the Solubility [6]?
Answer: 1000 mM (≈ 212 mg/mL)

Question: For “hGH: human growth hormone formulation obtained from BresaGen, diafiltered against buffer, about 20 mg/ml in 2% HEC gel”, which hGH remaining intact ([7]; His-Gly buffer 12.5 mM) is on record?
Answer: about 80%

Question: What about the degradation products [7, 14] of the same compound?
Answer: No extra degradation products were discovered

Question: And the “loss of protein through degradation” value [7, 14]?
Answer: no significant loss of protein through degradation

Question: And the hGH remaining intact ([7]; histidine buffer)?
Answer: approximately 50%
